According to US20050009924A1 (priority 2003, published 2005):

Tests used:
[1] = test system: transcriptional activity of hTERT; test: SEAP reporter assay of hTERT expression, PhTERT-SEAP (H1299); type: cell-based, human; settings: PhTERT-SEAP(hTERT-H1299)
Experimental: (§1) Secreted alkaine phosphatase was used as the reporter system to monitor the transcriptional activity of hTERT. Here, about […] each were grown in 96-well plates and incubated at 37° C. for 24 h and changed with fresh media. Varying amounts of drugs were added and cells were incubated for another 24 h. Culture media were collected and heated at 65° C. for 10 min to inactivate heat-labile phosphatases. An equal amount of SEAP buffer (2 M diethanolamine, 1 mM MgCl2, and 20 mM […]) was added to the media and p-nitrophenyl phosphate was added to a final concentration of 12 mM. Absorptions at 405 nm were taken, and the rate of absorption increase is determined.
(§2) Culture media were changed every 3 days. […] The stable clones were selected using G418.

[2] = test system: transcriptional activity of hTERT; test: SEAP reporter assay of hTERT expression, PhTERT-SEAP (hTERT-BJ1); type: cell-based, human; settings: PhTERT-SEAP (hTERT-BJ1)
Experimental: as §1, §2

human hepatoma G2 cells = test: Cytotoxicity assay (XTT colorimetric), Hep G2; type: cell-based; settings: 48 h of drug exposure
[3] = test system: hepatitis B virus transfected hepatoma cell lines, HepG 2.2.15 cells; test: Cytotoxicity assay, 2.2.15 cells; type: cell-based, human; settings: 48 h of drug exposure
[4] = test system: non-small-cell lung cancer cells H1299; test: MTT relative viability, PhTERT-SEAP (H1299) cells; settings: PhTERT-SEAP(hTERT-H1299)
hTERT-BJ1 cells = test: MTT relative viability, PhTERT-SEAP (hTERT-BJ1) cells; settings: PhTERT-SEAP (hTERT-BJ1)
rat glioma C6 cells = test: Cytotoxicity assay (XTT colorimetric), C6 cells; type: cell-based; settings: 48 h of drug exposure
[5] = MTT relative viability, PhTERT-SEAP (H1299) cells; settings: human
[6] = MTT relative viability, PhTERT-SEAP (hTERT-BJ1) cells; settings: human, hTERT-BJ1 cells, stable PhTERT-SEAP reporter clone

## 1,4-Bis(2,5-trifluorobenzoylamido)-9,10-anthracenedione [VI29]
[1]; 1.3 μM
  Relative SEAP activity (%): 106 ± 6.7%
  SEAP/vibility: 1.07
[1]; 13 μM
  Relative SEAP activity (%): 105 ± 7.9%
  SEAP/vibility: 1.32
[1]; 139 μM
  Relative SEAP activity (%): 94 ± 10.2%
  SEAP/vibility: 2.56
[2]; 1.3 μM
  Relative SEAP activity (%): 16 ± 31.8%
  SEAP/vibility: 0.15
[2]; 13 μM
  Relative SEAP activity (%): 24 ± 21.5%
  SEAP/vibility: 0.28
[2]; 139 μM
  Relative SEAP activity (%): 26 ± 36.9%
  SEAP/vibility: 0.47
Human hepatoma G2 cells
  IC50: > 20 µM
[3]
  IC50: 2.2 µM
[4]; 1.3 μM
  Relative MTT viability (%): 99 ± 8.6%
[4]; 13 μM
  Relative MTT viability (%): 79 ± 10.3%
[4]; 139 μM
  Relative MTT viability (%): 37 ± 8.8%
hTERT-BJ1 cells; 1.3 μM
  Relative MTT viability (%): 107 ± 6.4%
hTERT-BJ1 cells; 13 μM
  Relative MTT viability (%): 85 ± 4.8%
hTERT-BJ1 cells; 139 μM
  Relative MTT viability (%): 56 ± 4.6%
Rat glioma C6 cells
  IC50: 2.82 µM

## 1,4-Bis[3-(aminomethyl)cyclopropanepropionamido]-9,10-anthracenedione [VI37]
[1]; 2.0 μM
  Relative SEAP activity (%): 95 ± 4.2%
  SEAP/vibility: 0.88
[1]; 20 μM
  Relative SEAP activity (%): 91 ± 8.9%
  SEAP/vibility: 1.09
[1]; 204 μM
  Relative SEAP activity (%): 52 ± 4.4%
  SEAP/vibility: 0.77
[2]; 2.0 μM
  Relative SEAP activity (%): 97 ± 13.8%
  SEAP/vibility: 1.02
[2]; 20 μM
  Relative SEAP activity (%): 124 ± 22.8%
  SEAP/vibility: 1.48
[2]; 204 μM
  Relative SEAP activity (%): 105 ± 17.7%
  SEAP/vibility: 3.01
Human hepatoma G2 cells
  IC50: 0.32 µM
[3]
  IC50: 1.71 µM
[4]; 2.0 μM
  Relative MTT viability (%): 108 ± 7.8%
[4]; 20 μM
  Relative MTT viability (%): 83 ± 1.6%
[4]; 204 μM
  Relative MTT viability (%): 67 ± 9.8%
hTERT-BJ1 cells; 2.0 μM
  Relative MTT viability (%): 95 ± 2.5%
hTERT-BJ1 cells; 20 μM
  Relative MTT viability (%): 84 ± 1.5%
hTERT-BJ1 cells; 204 μM
  Relative MTT viability (%): 35 ± 3.7%
Rat glioma C6 cells
  IC50: 0.4 µM

## O=C(Nc1ccc(NC(=O)c2ccccc2Cl)c2c1C(=O)c1ccccc1C2=O)c1ccccc1Cl [VI2, 1,4-Bis(2-chlorobenzoylamido)-9,10-anthracenedione]
[1]; 1.9 μM
  Relative SEAP activity (%): 108 ± 10.5%
  SEAP/vibility: 0.94
[1]; 19 μM
  Relative SEAP activity (%): 105 ± 7.7%
  SEAP/vibility: 1.47
[1]; 194 μM
  Relative SEAP activity (%): 100 ± 8.9%
  SEAP/vibility: 1.68
[2]; 1.9 μM
  Relative SEAP activity (%): 110 ± 20.1%
  SEAP/vibility: 0.95
[2]; 19 μM
  Relative SEAP activity (%): 96 ± 33.4%
  SEAP/vibility: 0.88
[2]; 194 μM
  Relative SEAP activity (%): 95 ± 36.6%
  SEAP/vibility: 1.00
Human hepatoma G2 cells
  IC50: > 20 µM
[3]
  IC50: > 20 µM
[4]; 1.9 μM
  Relative MTT viability (%): 114 ± 5.4%
[4]; 19 μM
  Relative MTT viability (%): 72 ± 3.6%
[4]; 194 μM
  Relative MTT viability (%): 60 ± 7.9%
hTERT-BJ1 cells; 1.9 μM
  Relative MTT viability (%): 116 ± 7.7%
hTERT-BJ1 cells; 19 μM
  Relative MTT viability (%): 109 ± 2.2%
hTERT-BJ1 cells; 194 μM
  Relative MTT viability (%): 95 ± 2.0%
Rat glioma C6 cells
  IC50: > 20 µM

## O=C(Nc1ccc(NC(=O)c2ccccc2)c2c1C(=O)c1ccccc1C2=O)c1ccccc1 [VI4, 1,4-Bisbenzoylamido-9,10-anthracenedione]
[1]; 2.2 μM
  Relative SEAP activity (%): 81 ± 3.3%
  SEAP/vibility: 0.74
[1]; 22 μM
  Relative SEAP activity (%): 84 ± 2.6%
  SEAP/vibility: 0.96
[1]; 224 μM
  Relative SEAP activity (%): 80 ± 2.7%
  SEAP/vibility: 2.99
[2]; 2.2 μM
  Relative SEAP activity (%): (−4) ± 25.7^ %
  SEAP/vibility: −0.04
[2]; 22 μM
  Relative SEAP activity (%): (−10) ± 26.8 ^ %
  SEAP/vibility: −0.14
[2]; 224 μM
  Relative SEAP activity (%): (−41) ± 26.8 ^ %
  SEAP/vibility: −1.10
Human hepatoma G2 cells
  IC50: > 20 µM
[3]
  IC50: > 20 µM
[4]; 2.2 μM
  Relative MTT viability (%): 109 ± 6.0%
[4]; 22 μM
  Relative MTT viability (%): 88 ± 6.2%
[4]; 224 μM
  Relative MTT viability (%): 27 ± 1.8%
hTERT-BJ1 cells; 2.2 μM
  Relative MTT viability (%): 95 ± 4.9%
hTERT-BJ1 cells; 22 μM
  Relative MTT viability (%): 69 ± 3.2%
hTERT-BJ1 cells; 224 μM
  Relative MTT viability (%): 38 ± 2.6%
Rat glioma C6 cells
  IC50: > 20 µM

## O=C(Nc1ccc(NC(=O)c2cccc(Cl)c2)c2c1C(=O)c1ccccc1C2=O)c1cccc(Cl)c1 [VI5, 1,4-Bis(3-chlorobenzoylamido)-9,10-anthracenedione]
[1]; 1.9 μM
  Relative SEAP activity (%): 110 ± 4.9%
  SEAP/vibility: 1.17
[1]; 19 μM
  Relative SEAP activity (%): 112 ± 6.1%
  SEAP/vibility: 1.10
[1]; 194 μM
  Relative SEAP activity (%): 91 ± 3.0%
  SEAP/vibility: 1.55
[2]; 1.9 μM
  Relative SEAP activity (%): 98 ± 10.1%
  SEAP/vibility: 0.99
[2]; 19 μM
  Relative SEAP activity (%): 105 ± 8.8%
  SEAP/vibility: 1.17
[2]; 194 μM
  Relative SEAP activity (%): 89 ± 10.1%
  SEAP/vibility: 1.48
Human hepatoma G2 cells
  IC50: > 20 µM
[3]
  IC50: > 20 µM
[4]; 1.9 μM
  Relative MTT viability (%): 95 ± 11.3%
[4]; 19 μM
  Relative MTT viability (%): 102 ± 8.5%
[4]; 194 μM
  Relative MTT viability (%): 59 ± 4.3%
hTERT-BJ1 cells; 1.9 μM
  Relative MTT viability (%): 99 ± 9.8%
hTERT-BJ1 cells; 19 μM
  Relative MTT viability (%): 90 ± 1.9%
hTERT-BJ1 cells; 194 μM
  Relative MTT viability (%): 60 ± 2.0%
Rat glioma C6 cells
  IC50: > 20 µM

## Cc1cccc(C(=O)Nc2ccc(NC(=O)c3cccc(C)c3)c3c2C(=O)c2ccccc2C3=O)c1 [VI6, 1,4-Bis(3-methylbenzoylamido)-9,10-anthracenedione]
[1]; 2.1 μM
  Relative SEAP activity (%): 107 ± 4.6%
  SEAP/vibility: 1.06
[1]; 21 μM
  Relative SEAP activity (%): 104 ± 4.0%
  SEAP/vibility: 1.08
[1]; 210 μM
  Relative SEAP activity (%): 99 ± 9.1%
  SEAP/vibility: 1.20
[2]; 2.1 μM
  Relative SEAP activity (%): 97 ± 17.1%
  SEAP/vibility: 0.88
[2]; 21 μM
  Relative SEAP activity (%): 78 ± 7.1%
  SEAP/vibility: 0.71
[2]; 210 μM
  Relative SEAP activity (%): 70 ± 5.8%
  SEAP/vibility: 0.69
Human hepatoma G2 cells
  IC50: > 20 µM
[3]
  IC50: > 20 µM
[4]; 2.1 μM
  Relative MTT viability (%): 101 ± 5.6%
[4]; 21 μM
  Relative MTT viability (%): 97 ± 6.2%
[4]; 210 μM
  Relative MTT viability (%): 83 ± 7.8%
hTERT-BJ1 cells; 2.1 μM
  Relative MTT viability (%): 110 ± 2.6%
hTERT-BJ1 cells; 21 μM
  Relative MTT viability (%): 109 ± 4.6%
hTERT-BJ1 cells; 210 μM
  Relative MTT viability (%): 101 ± 6.0%
Rat glioma C6 cells
  IC50: > 20 µM

## CCN(CC)CCC(=O)Nc1ccc(NC(=O)CCN(CC)CC)c2c1C(=O)c1ccccc1C2=O [VI34, 1,4-Bis[3-(diethylamino)propionamido]-9,10-anthracenedione]
[1]; 2.0 μM
  SEAP/vibility: 0.79
[1]; 20 μM
  SEAP/vibility: 4.63
[1]; 203 μM
  SEAP/vibility: 44.24
[1]; Homo sapiens, NCI-H1299, 2.0 μM, read-out: Relative SEAP activity (%)
  activity at 2 µM: 73 ± 2.7%
[1]; Homo sapiens, NCI-H1299, 20 μM, read-out: Relative SEAP activity (%)
  activity at 20 µM: 53 ± 2.7%
[1]; Homo sapiens, NCI-H1299, 203 μM, read-out: Relative SEAP activity (%)
  activity at 203 µM: 39 ± 0.8%
[2]; 2.0 μM
  SEAP/vibility: 0.03
[2]; 20 μM
  SEAP/vibility: −0.13
[2]; 203 μM
  SEAP/vibility: −0.37
[2]; Homo sapiens, 2.0 μM, read-out: Relative SEAP activity (%)
  activity at 2 µM: 2 ± 11.1%
[2]; Homo sapiens, 20 μM, read-out: Relative SEAP activity (%)
  activity at 20 µM: -2%
[2]; Homo sapiens, 203 μM, read-out: Relative SEAP activity (%)
  activity at 203 µM: -2%
Human hepatoma G2 cells; Homo sapiens, HepG2
  IC50: 0.49 µM
[3]; Homo sapiens, HepG2.2.15
  IC50: 0.28 µM
[5]
  viability at 48 h, 2 µM: 92 ± 6.1%
  viability at 48 h, 20 µM: 11 ± 2.5%
  viability at 48 h, 203 µM: 1 ± 2.4%
[6]
  viability at 48 h, 2 µM: 83 ± 9.2%
  viability at 48 h, 20 µM: 15 ± 3.9%
  viability at 48 h, 203 µM: 6 ± 3.9%
Rat glioma C6 cells; Rattus norvegicus, C6
  IC50: 0.9 µM
